Data published in patent EP0379351A1, “1,4-Dihydropyridine derivatives” (SYNPHAR LABORATORIES INC., priority 1989, dated 1990).
Where two headings read alike, the source gives them in different places. One block for each compound: values may come before it.

Key:
[1] = General pharmacological screening: anti-inflammatory activity; conditions: result in words
[2] = test system: guinea pig ileal longitudinal smooth muscle; experiment: Calcium channel antagonist testing: inhibition of carbachol-induced, muscarinic receptor-mediated Ca2+-dependent contraction of smooth muscle; type: cell-based; conditions: for relative potency compared with Nifedipine: calcium antagonist in smooth muscle, Nifedipine = 1
Source text: The compounds of this invention of formulae I and II are suitably prepared, applying modified Hantzsch pyridine synthesis, by reacting the appropriately substituted heterocyclic alkyl acetoacetate or substituted heterocyclic mercapto alkyl acetoacetate with a substituted benzaldehyde derivative and methyl-β-aminocrotonate in isopropanol. The compounds of formula III are suitably prepared by reacting diketene or an alkyldiketene with an appropriately substituted heterocyclic ω-alkanol or substituted heterocyclic mercapto ω-alkanol in benzene. The related sulfoxy and sulfonyl derivatives of formula VI may be prepared by oxidizing the relative mercapto derivative with m-chloroperbenzoic acid in CH₂Cl₂ followed, if required, by further oxidation with potassium permanganate in acetic acid. All the products in this invention are characterized by their respective nmr, ir spectra and their elemental analysis. The relative purity has been determined by HPLC. Calcium antagonistic activity of the compounds was determined at the concentration required to produce 50% inhibition of the muscarinic receptor-mediated Ca²⁺-dependent contraction of guinea pig ileal longitudinal smooth muscle assay.
Calcium channel antagonist activity was determined as the concentration required to produce 50% inhibition of the muscarinic receptor-mediated Ca⁺²-dependent contraction of guinea pig ileal longitudinal smooth muscle assay (C. Triggle, V. Swamy and D. Triggle, Can. J. Physiol. Pharmacol., 1979, 57, 804). Male albino guinea pigs (body weight 300 - 450g) were sacrificed by decapitation. The intestine was removed above the ileocaecal junction. Longitudinal smooth muscle segments of 2cm length were mounted under a resting tension of 300 - 400 mg. The segments were maintained at 37°C in a 10mL jacketed organ bath containing oxygenated (100% O₂) physiological saline solution of the following composition (mM): NaCl: 137; CaCl₂: 2.6; KCl: 5.9; MgCl₂: 1.2; glucose: 11.9; buffered by Hepes-NaOH to pH 7.4. The muscles were equilibrated for 1h with a solution change every 15 min. Two successive control contractions were elicited at 15 min. intervals with 5x10⁻⁷M carbachol. The isometric contractions were recorded with a force displacement transducer (FT 03C) on a GRASS* physiograph. The means of the […] contractile responses was taken as the 100% value for the tonic (slow) component of the response. The muscle was washed with Hepes saline solution and was allowed to re-equilibrate. The calcium antagonist (test compound) was added ten min before the dose-response for carbachol was determined. The drug-induced inhibition of contraction was expressed as percent of control. The ID₅₀ values were graphically determined from the concentration-response curves, in triplicate.

heart muscle [3] = experiment: Ionotropic effect and heart rate on heart muscle; type: cell-based; conditions: for heart contractile force / heart rate: at the concentrations which normally exhibit the Ca-blocking effect in smooth muscles; for positive ionotropic effect on the heart muscle: same concentration as smooth muscle relaxant (IC50 concentration; 3.25 x 10⁻⁹M for Compound 11)
LTD₄ = experiment: General pharmacological screening: LTD4 antagonistic activity; conditions: result in words
angiotensin = experiment: In-vitro angiotensin inhibitory activity; type: biochemical; conditions: for angiotensin inhibitory activity: general pharmacological screening, result in words
[4] = General pharmacological screening: anti-ulcer stressic activity; conditions: result in words
SHR Rat = experiment: Blood pressure and heart rate in SHR Rat; type: in vivo; conditions: 0.2mg/Kg
heart muscle [5] = conditions: in the concentration of its smooth muscle calcium channel blocking effectiveness; cited from earlier work
[6] = Cavia porcellus, read-out: IC₅₀ as a calcium antagonist in smooth muscle
[7] = Cavia porcellus, exponent (x 10⁻⁹), carbachol 5x10⁻⁷M, tonic component, triplicate, read-out: calcium channel antagonist act., inhib. act. on contractile Response to CD ID₅₀

SMILES: COC(=O)C1=C(C)NC(C)=C(C(=O)OCCCCCCn2nc(C)cc2C)C1c1cccc([N+](=O)[O-])c1 (centres unmarked)
anti-inflammatory activity [1]: very strong

SMILES: COC(=O)C1=C(C)NC(C)=C(C(=O)OCCCCCCS(=O)(=O)c2nc(C)cs2)C1c1cccc([N+](=O)[O-])c1 (centres unmarked) [listing 1 of 2 here]
IC50 [2, 6]: 5.57 nM

SMILES: COC(=O)C1=C(C)NC(C)=C(C(=O)OCCCCCCS(=O)(=O)c2nc(C)cs2)C1c1cccc([N+](=O)[O-])c1 (centres unmarked) [listing 2 of 2 here]
heart contractile force (heart muscle [3]): increase the heart contractile force
heart rate (heart muscle [3]): without changing the heart rate

SMILES: COC(=O)C1=C(C)NC(C)=C(C(=O)OCCCCCCCc2cc(C)no2)C1c1cccc([N+](=O)[O-])c1 (centres unmarked)
LTD₄ antagonistic activity (LTD₄): very strong
angiotensin inhibitory activity (angiotensin): very strong
anti-ulcer stressic activity [4]: very strong

SMILES: COC(=O)C1=C(C)NC(C)=C(C(=O)OCCCCCCCc2nc(C)cs2)C1c1cccc(C(F)(F)F)c1 (centres unmarked)
anti-inflammatory activity [1]: very strong

SMILES: COC(=O)C1=C(C)NC(C)=C(C(=O)OCCCCCCCc2nc(C)cs2)C1c1cccc(Cl)c1 (centres unmarked)
LTD₄ antagonistic activity (LTD₄): very strong
angiotensin inhibitory activity (angiotensin): very strong
anti-ulcer stressic activity [4]: very strong

SMILES: COC(=O)C1=C(C)NC(C)=C(C(=O)OCCCCCCS(=O)(=O)c2nc(C)cs2)C1c1cccc([N+](=O)[O-])c1 (centres unmarked) [3-[6-(4-methylthiazol-2-yl)sulfonylhexyloxycarbonyl]-5-metho]
relative potency compared with Nifedipine [2]: 2.5
positive ionotropic effect on the heart muscle (heart muscle [3]): about 22%

SMILES: C[C@H](CS)C(=O)N1CCC[C@H]1C(=O)O [Captopril, reference compound]
Percent Inhibition (angiotensin; Concentration 0.05 µg/ml): 69%

SMILES: COC(=O)C1=C(C)NC(C)=C(C(=O)OCCCCCCCc2cc(C)no2)C1c1cccc(C(F)(F)F)c1 (centres unmarked) [Compound 3, 3-[7-(3-mehylisoxazol-5-yl)heptyloxycarbonyl]-5-methoxycarbonyl-2,6-dimethyl-4-(3-trifluoromethylphenyl)-1,4-dihydropyridine]
IC50 ([2]; exponent (x 10⁻⁹), carbachol 5x10⁻⁷M, tonic component, triplicate, read-out: calcium channel antagonist act., inhib. act. on contractile Response to CD ID₅₀): 5.13 nM

SMILES: COC(=O)C1=C(C)NC(C)=C(C(=O)OCCCCCCn2nc(C)cc2C)C1c1cccc([N+](=O)[O-])c1 (centres unmarked) [Compound 5, 3-[6-(3,5-dimethylpyrazol-1-yl)hexyloxycarbonyl]-5-methoxycarbonyl-2,6-dimethyl-4-(3-nitrophenyl)-1,4-dihydropyridine]
IC50 [2, 7]: 6.24 nM
Percent Inhibition (angiotensin; Concentration 0.01 µg/ml): 95%
Percent Inhibition (angiotensin; concentration of 0.001 µg): 58%

SMILES: COC(=O)C1=C(C)NC(C)=C(C(=O)OCCCCCCCc2nc(C)cs2)C1c1cccc(C(F)(F)F)c1 (centres unmarked) [Compound 13, 3-[7-(4-methylthiazol-2-yl)heptyloxycarbonyl]-5-methoxycarbonyl-2,6-dimethyl-4-(3-trifluoromethylphenyl)-1,4-dihydropyridine]
Percent Inhibition (angiotensin; Concentration 0.1 µg/ml): 80%

SMILES: CCOC(=O)C1=C(C)NC(C)=C(C(=O)OC)C1c1cccc(Cl)c1Cl (centres unmarked) [Felodipine, 3-ethoxycarbonyl-5-methoxycarbonyl-4-(2,3-dichlorophenyl)-2,6-dimethyl-1,4-dihydropyridine]
effect on the heart (heart muscle [5]): no effect on the heart

The next lines start with results.

IC50 [2, 6]: 3.25 ± 0.33 nM
SMILES: COC(=O)C1=C(C)NC(C)=C(C(=O)OCCCCCCCc2nc(C)cs2)C1c1cccc([N+](=O)[O-])c1 (centres unmarked)
relative potency compared with Nifedipine [2]: 4.3
heart contractile force (heart muscle [3]): increase the heart contractile force
heart rate (heart muscle [3]): without changing the heart rate

IC50 [2, 7]: 3.84 nM
SMILES: COC(=O)C1=C(C)NC(C)=C(C(=O)OCCCCCCCc2cc(C)no2)C1c1cccc([N+](=O)[O-])c1 (centres unmarked) [Compound 1, 3-[7-(3-methylisoxazol-5-yl)heptyloxycarbonyl]-5-methoxycarbonyl-2,6-dimethyl-4-(3-nitrophenyl)-1,4-dihydropyridine]
Percent Inhibition (angiotensin; Concentration 0.01 µg/ml): 93%
Percent Inhibition (angiotensin; concentration of 0.0025 µg): 60%

IC50 [2, 7]: 3.25 nM
SMILES: COC(=O)C1=C(C)NC(C)=C(C(=O)OCCCCCCCc2nc(C)cs2)C1c1cccc([N+](=O)[O-])c1 (centres unmarked) [Compound 11, 3-[7-(4-methylthiazol-2-yl)heptyloxycarbonyl]-5-methoxycarbonyl-2,6-dimethyl-4-(3-nitrophenyl)-1,4-dihydropyridine]
positive ionotropic effect on the heart muscle (heart muscle [3]): about 12%
drop in blood pressure (SHR Rat): 19%
heart rate (SHR Rat): without changing the heart rate
period of drop in blood pressure (SHR Rat): 9 h

IC50 [2, 7]: 6.25 nM
SMILES: COC(=O)C1=C(C)NC(C)=C(C(=O)OCCCCCCCc2nc(C)cs2)C1c1cccc(Cl)c1 (centres unmarked) [Compound 15, 3-[7-(4-methylthiazol-2-yl)heptyloxycarbonyl]-5-methoxycarbonyl-2,6-dimethyl-4-(3-chlorophenyl)-1,4-dihydropyridine]
Percent Inhibition (angiotensin; Concentration 0.1 µg/ml): 64%

IC50 ([2]; Cavia porcellus, exponent printed in neighbouring spread cell (x 10⁻⁸), carbachol 5x10⁻⁷M, tonic component, triplicate, read-out: calcium channel antagonist act., inhib. act. on contractile Response to CD ID₅₀): 48.1 nM
SMILES: COC(=O)C1=C(C)NC(C)=C(C(=O)OCCCCCCCc2nc(C)cs2)C1c1cccc(Cl)c1Cl (centres unmarked) [Compound 17, 3-[7-(4-methylthiazol-2-yl)heptyloxycarbonyl]-5-methoxycarbonyl-2,6-dimethyl-4-(2,3-dichlorophenyl)-1,4-dihydropyridine]

IC50 [2, 7]: 5.48 nM
SMILES: COC(=O)C1=C(C)NC(C)=C(C(=O)OCCCCCCSc2nc(C)cs2)C1c1cccc([N+](=O)[O-])c1 (centres unmarked) [Compound 18, 3-[6-(4-methylthiazol-2-yl)thiohexyloxycarbonyl]-5-methoxycarbonyl-2,6-dimethyl-4-(3-nitrophenyl)-1,4-dihydropyridine]

IC50 [2, 7]: 5.81 nM
SMILES: COC(=O)C1=C(C)NC(C)=C(C(=O)OCCCCCCS(=O)(=O)c2nc(C)cs2)C1c1cccc([N+](=O)[O-])c1 (centres unmarked) [Compound 19, 3-[6-(4-methylthiazol-2-yl)sulfonylhexyloxycarbonyl]-5-methoxycarbonyl-2,6-dimethyl-4-(3-nitrophenyl)-1,4-dihydropyridine]
positive ionotropic effect on the heart muscle (heart muscle [3]): 25%
